Results published in publication PMC4884932, “Selective brain penetrable Nurr1 transactivator for treating Parkinson's disease” (Oncotarget, 2016).
Read-outs that look alike come from different tables or passages of the source.

Experiments:
[1] = IRX4204 content in the brain by LC/MS/MS; type: in vivo; details: male, SD, oral, rat, 7 days repeated dosing 10 mg/kg/day gavage, one hour after the last dose
Description: (§1) Male SD rats underwent daily gavage with 10mg/kg/day for seven days. One hour after the last dose, rats were anesthetized with ketamine/xylazine and transcardially perfused with cold saline. Brains were isolated and homogenized with two volumes of phosphate buffer using ultrasonication. A 100μl sample of the homogenate was transferred to a 1.7ml centrifuge tube and mixed with 20μl of internal standard (100ng/ml of 13-cis retinoic acid-d5 in diluent). Then the sample was deproteinized with 300μl of acetonitrile, centrifuged, and the supernatant was transferred to an autosampler vial for analysis by LC/MS/MS. The calibration standards and the internal standard (13-cis retinoic acid-d5) were diluted in acetonitrile:butylatedhydroxyanisole:ethoxyquin:triethylamine (100:0.05:0.02:0.1, v/w/v/v).
(§2) The LC/MS system was comprised of Waters Acquity Ultra Performance Liquid Chromatography (UPLC) coupled to a XEVO-TQS (Waters). The samples were analyzed by reverse-phase HPLC using a Waters Atlantis T3 column (150 × 2.1mm, 5um). The mobile phase was nebulized using heated nitrogen in a Z-spray source/interface set to electrospray negative ionization mode. The ionized compounds were detected using MS/MS. […] The detection was linear between 2.5nM to 10nM.

[2] = tested on: Nurr1 downstream genes in the SN; test: Expression of Nurr1 downstream genes in the substantia nigra after oral treatment; type: in vivo; details: rat, 7 days oral 10 mg/kg/day
Description: as §1
(§3) Total RNA from VMB neurons or rat substantia nigra were isolated using the RNeasy Mini Kit from Qiagen (Valencia, CA) and 1μg of total RNA was reverse transcribed using SuperScript III first-strand synthesis supermix for qRT-PCR from Invitrogen (Carlsbad, CA) according to the manufacturer's instruction. Quantitative RT-PCR was performed using Maxima SYBR Green master mix (Fermentas) in ABI Prism 7900HT in four replicates with primers amplifying the target genes. Expression level of actin was used as an internal control. Data were normalized using the 2^−ΔΔCt method. Levels of target gene mRNAs were expressed relative to those in vehicle control groups and plotted in GraphPad Prism.

[3] = Plasma protein binding by equilibrium dialysis, rat plasma; type: in vitro ADME; details: K3EDTA control plasma, 37°C, read-out: plasma protein binding, bound (converted)
Description: (§4) SD male rats were grouped into four groups: vehicle, 1mg/kg/day, 3mg/kg/day and 10mg/kg/day. Rats were treated with the designated dose by daily gavage. Acute plasma PK was conducted on day one and acute-on-chronic plasma PK was conducted on day 24. Pharmacokinetic assessment was conducted by collecting of blood at baseline (prior gavage), 0.25, 0.5, 1, 2, 4, 8, 12 and 24h post gavage. […] The spiked plasma was dialyzed at 37°C against an isotonic sodium phosphate buffer to achieve equilibrium. At the end of dialysis, the plasma and buffer level of IRX4204 were quantified by LC/MS/MS.

[4] = Plasma pharmacokinetics after oral gavage; type: in vivo; details: SD, rat
Description: as §4, with “SD male rats were grouped into four groups: vehicle, 1mg/kg/day, 3mg/kg/day and 10mg/kg/day.” left out
as §2

primary VMB neurons = test: Nurr1 downstream gene expression in VMB neurons (real time PCR); type: cell-based, mouse; details: 1nM, 16 hours
Description: Ventral midbrain (VMB) from E13.5-14.5 C57BL/6 mouse embryos were dissected, triturated and plated on poly-D-lysine coated 12 well plates or glass coverslips with the serum-free chemically-defined Neurobasal medium, supplemented with 2% B27, 0.5mM L-glutamine, 50I.U./ml penicillin and 50μg/ml streptomycin (Gibco-BRL). […] For each time point, cells were washed once with phosphate buffered saline and fixed with 4% paraformaldehyde for TH immunofluorescent staining. For cell counting, 10 frames were randomly captured from each well using a Leica fluorescent microscope and a minimum of four replicates for each dose and each time point were analyzed for each experiment.
as §3

[5] = female, 1 mg/kg/day, 1mg/kg/day gavage, Week 4
[6] = female, 1 mg/kg/day, Female, 1mg/kg/day gavage, Day 1
[7] = female, 3 mg/kg/day, 3mg/kg/day gavage, Week 4
[8] = female, 3 mg/kg/day, Female, 3mg/kg/day gavage, Day 1
[9] = female, 10 mg/kg/day, 10 mg/kg/day gavage, Week 4
[10] = female, 10 mg/kg/day, Female, 10 mg/kg/day gavage, Day 1
[11] = male, 1 mg/kg/day, 1mg/kg/day gavage, Week 4
[12] = male, 1 mg/kg/day, Male, 1mg/kg/day gavage, Day 1
[13] = male, 3 mg/kg/day, 3mg/kg/day gavage, Week 4
[14] = male, 3 mg/kg/day, Male, 3mg/kg/day gavage, Day 1
[15] = male, 10 mg/kg/day, 10 mg/kg/day gavage, Week 4
[16] = male, 10 mg/kg/day, Male, 10 mg/kg/day gavage, Day 1

concentration at 1 h [1]: 11.5 ± 2.9 nM | fraction unbound at 1 ug/ml [3]: 0.0249 | Cmax [4, 5]: 43.4 ng/mL | Tmax [4, 5]: 15 min | Cmax [4, 6]: 120 ng/mL | Tmax [4, 6]: 30 min | AUC(0-t) ([4]; female, 1 mg/kg/day, Female, 1mg/kg/day gavage, Day 1, read-out: AUC0-24): 251 ng·h/mL | AUC(0-t) ([4]; female, 1 mg/kg/day, Female, 1mg/kg/day gavage, Week 4, read-out: AUC0-24): 136 ng·h/mL | Cmax [4, 7]: 101 ng/mL | Tmax [4, 7]: 60 min | Cmax [4, 8]: 362 ng/mL | Tmax [4, 8]: 30 min | AUC(0-t) ([4]; female, 3 mg/kg/day, Female, 3mg/kg/day gavage, Day 1, read-out: AUC0-24): 975 ng·h/mL | AUC(0-t) ([4]; female, 3 mg/kg/day, Female, 3mg/kg/day gavage, Week 4, read-out: AUC0-24): 344 ng·h/mL | Cmax [4, 9]: 667 ng/mL | Tmax [4, 9]: 15 min | Cmax [4, 10]: 974 ng/mL | Tmax [4, 10]: 30 min | AUC(0-t) ([4]; female, 10 mg/kg/day, Female, 10 mg/kg/day gavage, Day 1, read-out: AUC0-24): 2440 ng·h/mL | AUC(0-t) ([4]; female, 10 mg/kg/day, Female, 10 mg/kg/day gavage, Week 4, read-out: AUC0-24): 940 ng·h/mL | Cmax [4, 11]: 25.7 ng/mL | Tmax [4, 11]: 15 min | Cmax [4, 12]: 58.9 ng/mL | Tmax [4, 12]: 30 min | AUC(0-t) ([4]; male, 1 mg/kg/day, Male, 1mg/kg/day gavage, Day 1, read-out: AUC0-24): 140 ng·h/mL | AUC(0-t) ([4]; male, 1 mg/kg/day, Male, 1mg/kg/day gavage, Week 4, read-out: AUC0-24): 27.5 ng·h/mL | Cmax [4, 13]: 54.5 ng/mL | Tmax [4, 13]: 30 min | Cmax [4, 14]: 198 ng/mL | Tmax [4, 14]: 30 min | AUC(0-t) ([4]; male, 3 mg/kg/day, Male, 3mg/kg/day gavage, Day 1, read-out: AUC0-24): 484 ng·h/mL | AUC(0-t) ([4]; male, 3 mg/kg/day, Male, 3mg/kg/day gavage, Week 4, read-out: AUC0-24): 280 ng·h/mL | Cmax [4, 15]: 77.2 ng/mL | Tmax [4, 15]: 15 min | Cmax [4, 16]: 542 ng/mL | Tmax [4, 16]: 15 min | AUC(0-t) ([4]; male, 10 mg/kg/day, Male, 10 mg/kg/day gavage, Day 1, read-out: AUC0-24): 1490 ng·h/mL | AUC(0-t) ([4]; male, 10 mg/kg/day, Male, 10 mg/kg/day gavage, Week 4, read-out: AUC0-24): 422 ng·h/mL | expression of dopa-decarboxylase (DDC) (primary VMB neurons): significantly increased
Compound: CC(/C=C/[C@@H]1C[C@]1(C)c1ccc2c(c1)C(C)(C)CCC2(C)C)=C\C(=O)O [IRX4204]
DAT mRNA level in the SN [2]: significantly increased | DDC mRNA level in the SN [2]: significantly increased | DJ-1(PARK7) mRNA level in the SN [2]: significantly increased | GRFα1 mRNA level in the SN [2]: significantly increased | Pitx3 mRNA level in the SN [2]: significantly increased | TH mRNA level in the SN [2]: significantly increased | VMAT-2 (VMAT2) mRNA expression in the SN ([2]; did not reach statistical significance): trend towards an increase | expression of dopamine transporter (DAT) (primary VMB neurons): significantly increased
